From article PMC3877016 (PLoS ONE, 2013)
pIC50, pKd: −log10 of the molar value.

Columns and labels:
[1] = system: ApoA-I mRNA in Huh7 cells; experiment: Induction of ApoA-I mRNA in Huh7 cells (RT-PCR); format: cell-based, human; conditions: for Induction of ApoA-I mRNA: 48 h
Protocol: (§1) Huh7 cells were plated at 23,000/well in a 96 well plate in DMEM +10% FBS before allowing to grow overnight. Cells were treated with compounds for 48 h in 0.1%DMSO with or without 5 µM Actinomycin D. U937 cells were differentiated for 3 days in 60 ng/mL PMA, 32,000 cells/well in 96-well format. Cells were then treated with compound in 0.1%DMSO in RPMI media +10%FBS, and after 1 h, lipopolysaccharide (LPS, Sigma) was added to the cells at 1 µg/mL for 3 hours.
(§2) Cells were harvested by mRNA Catcher PLUS Kit followed by real-time PCR using the RNA UltraSense One-Step qRT-PCR System. ApoA-I, IL-6 and TNFα mRNA levels were measured relative to the endogenous control serpin A1 or cyclophilin in the same sample. Data was acquired using the 7500 Real Time PCR System (Applied Biosystems).

IL-6 mRNA in U937 cells = experiment: Inhibition of IL-6 mRNA in LPS-stimulated U937 cells (RT-PCR); format: cell-based, human; conditions: U937 cells differentiated with PMA
Protocol: as §1, §2

SMARCA2A = biological target: T1, SMARCA2A (Homo sapiens, UniProt P51531); experiment: Protein thermal denaturation assay; format: binding; conditions: 5 µM protein, 100 µM compound
T1 construct: bromodomains contained within six other proteins (CREBBP, p300, BAZ2B, GCN5, PHIP and SMARC2A); His-tag (N)
T1 sequence (P51531 1378-1506 limits assumed): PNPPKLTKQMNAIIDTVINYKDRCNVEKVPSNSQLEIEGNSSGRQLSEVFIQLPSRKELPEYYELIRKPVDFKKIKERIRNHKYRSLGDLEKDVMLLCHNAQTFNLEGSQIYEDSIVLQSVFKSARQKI
Protocol: (§3) 5 µM of purified bromodomain protein was incubated with 5X SYPRO® Orange (Molecular Probes) at a final concentration of 20 mM HEPES pH 7.4, 100 mM NaCl in the presence of 100 µM compound or DMSO (0.2%) in a fast 96 well optical plate (Applied Biosytems). Samples were incubated at room temperature for 30 minutes and ramped from 25°C to 95°C in a ViiA7 real-time PCR machine (Applied Biosystems). The resulting fluorescence data was analyzed and melting temperatures calculated using Protein Thermal Shift™ Software v1.0 (Life Technologies).

PHIP = biological target: T2, PHIP (Homo sapiens, UniProt Q8WWQ0); experiment: Protein thermal denaturation assay; format: binding; conditions: 5 µM protein, 100 µM compound
T2 construct: bromodomains contained within six other proteins (CREBBP, p300, BAZ2B, GCN5, PHIP and SMARC2A); His-tag (N)
Protocol: as §3

GCN5 = biological target: T3, GCN5 (Homo sapiens, UniProt Q92830); experiment: Protein thermal denaturation assay; format: binding; conditions: 5 µM protein, 100 µM compound
T3 construct: bromodomains contained within six other proteins (CREBBP, p300, BAZ2B, GCN5, PHIP and SMARC2A); His-tag (N)
T3 sequence (Q92830 728-832 limits assumed): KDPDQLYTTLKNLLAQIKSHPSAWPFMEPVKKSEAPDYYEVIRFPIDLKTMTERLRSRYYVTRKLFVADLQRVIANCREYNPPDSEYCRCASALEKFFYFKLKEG
Protocol: as §3

CREBBP = biological target: T4, CREBBP (Homo sapiens, UniProt Q92793); experiment: Protein thermal denaturation assay; format: binding; conditions: 5 µM protein, 100 µM compound
T4 construct: bromodomains contained within six other proteins (CREBBP, p300, BAZ2B, GCN5, PHIP and SMARC2A); His-tag (N)
T4 sequence (Q92793 1085-1192 limits assumed): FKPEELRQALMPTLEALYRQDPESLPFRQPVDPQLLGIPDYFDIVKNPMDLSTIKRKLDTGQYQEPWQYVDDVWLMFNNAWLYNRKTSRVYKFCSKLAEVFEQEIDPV
Protocol: as §3

BAZ2B = biological target: T5, BAZ2B (Homo sapiens, UniProt Q9UIF8); experiment: Protein thermal denaturation assay; format: binding; conditions: 5 µM protein, 100 µM compound
T5 construct: bromodomains contained within six other proteins (CREBBP, p300, BAZ2B, GCN5, PHIP and SMARC2A); His-tag (N)
T5 sequence (Q9UIF8 2060-2164 limits assumed): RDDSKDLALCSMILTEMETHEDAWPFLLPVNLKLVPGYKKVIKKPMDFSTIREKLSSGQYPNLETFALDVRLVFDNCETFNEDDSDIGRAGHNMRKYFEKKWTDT
Protocol: as §3

P300 = biological target: T6, P300 (Homo sapiens, UniProt Q09472); experiment: Protein thermal denaturation assay; format: binding; conditions: 5 µM protein, 100 µM compound
T6 construct: bromodomains contained within six other proteins (CREBBP, p300, BAZ2B, GCN5, PHIP and SMARC2A); His-tag (N)
T6 sequence (Q09472 1049-1156 limits assumed): as the sequence (Q92793 1085-1192 limits assumed) above, with N47S, V73I, F93Y, A98S counted along it
Protocol: as §3

BRD4[BD1] [2] = biological target: T7, BRD4[BD1] (Homo sapiens, UniProt O60885); experiment: Isothermal titration calorimetry; format: binding; conditions: ITC, 25°C
T7 construct: we expressed and purified the bromodomains (BD1, BD2) for the BETs expressed in hepatocytes (BRD2, BRD3, BRD4)

[3] = system: BRDs2, 3 and 4 on chromatin in Huh7 cells; experiment: Extraction of soluble BET proteins from chromatin (Western blot); format: cell-based, human
Protocol: Soluble proteins were extracted using a buffer containing 0.5% Triton X-100 (10 mM PIPES pH 6.8, 300 mM sucrose, 50 mMNaCl, 3 mM MgCl2, 1 mM EGTA, 2 mM ribonucleoside vanadyl complex) as previously described.

BRD2[BD2] [4] = biological target: T8, BRD2[BD2] (Homo sapiens, UniProt P25440); experiment: Isothermal titration calorimetry; format: binding; conditions: ITC, 25°C
T8 construct: we expressed and purified the bromodomains (BD1, BD2) for the BETs expressed in hepatocytes (BRD2, BRD3, BRD4)
T8 sequence (P25440 344-453 limits assumed): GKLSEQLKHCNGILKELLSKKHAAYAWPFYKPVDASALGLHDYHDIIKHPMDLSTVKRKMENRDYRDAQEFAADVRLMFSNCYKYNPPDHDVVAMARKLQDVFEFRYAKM

[5] = biological target: BRDT tandem bromodomains [BD1 BD2] (Homo sapiens, UniProt Q58F21); experiment: TR-FRET competition assay, tandem bromodomains; format: binding
Protocol: (§4) For inhibition assays, serially diluted compound was added to these reactions in a 0.2% final concentration of DMSO. Final buffer concentrations were 30 mM HEPES pH 7.4, 30 mM NaCl, 0.3 mM CHAPS, 20 mM PO4 pH 7.0, 320 mM KF, 0.08% BSA). After 2 h incubation at room temperature, the fluorescence by FRET was measured at 665 and 620 nm by a SynergyH4 plate reader (Biotek). IC50 values were determined from a dose response curve.

[6] = system: bromodomains of CREBBP, p300, BAZ2B, GCN5, PHIP and SMARC2A; experiment: Protein thermal denaturation assay (text summary); format: binding
Protocol: as §3

ApoA-I and HDL-C levels = system: ApoA-I and HDL-C levels; set-up: method as in PMID 21255957; conditions: statin-treated patients with coronary artery disease; cited from earlier work
[7] = system: cholesterol efflux capacity; conditions: monkeys; cited from earlier work
[8] = biological target: T9, PHIP on chromatin in Huh7 cells (Homo sapiens, UniProt Q8WWQ0); experiment: Extraction of soluble proteins from chromatin (Western blot); format: cell-based
T9 construct: endogenous in cells; host or cells: Huh7
Protocol: Soluble proteins were extracted using a buffer containing 0.5% Triton X-100 (10 mM PIPES pH 6.8, 300 mM sucrose, 50 mMNaCl, 3 mM MgCl2, 1 mM EGTA, 2 mM ribonucleoside vanadyl complex) as previously described. After loading on a 4–12% NuPAGE gradient gel (Life Technologies), the soluble and chromatin-containing pellet fractions were evaluated by Western blot with the following antibodies and dilutions: BRD2 (Bethyl, A302-583A, 1∶5000); BRD3 (Bethyl A302-368A, 1∶2000); BRD4 (Bethyl A301-985A, 1∶1000); PHIP (Abcam ab86244, 1∶2000), HNF4a (Perseus PPH1415, 1∶1000); NR2F2 (Perseus PPH7147, 1∶1000).

BRD4[BD2] [9] = biological target: T10, BRD4[BD2] (Homo sapiens, UniProt O60885); experiment: Isothermal titration calorimetry; format: binding; conditions: ITC, 25°C
T10 construct: we expressed and purified the bromodomains (BD1, BD2) for the BETs expressed in hepatocytes (BRD2, BRD3, BRD4)

BRD2[BD1] [10] = biological target: T11, BRD2[BD1] (Homo sapiens, UniProt P25440); experiment: Isothermal titration calorimetry; format: binding; conditions: ITC, 25°C
T11 construct: we expressed and purified the bromodomains (BD1, BD2) for the BETs expressed in hepatocytes (BRD2, BRD3, BRD4)
T11 sequence (P25440 74-180 limits assumed): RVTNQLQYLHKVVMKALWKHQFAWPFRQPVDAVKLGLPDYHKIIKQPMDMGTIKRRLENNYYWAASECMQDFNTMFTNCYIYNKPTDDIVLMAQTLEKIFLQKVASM

ApoA-I mRNA in HepG2 = conditions: cited from earlier work
[11] = biological target: BD1 bromodomains of BRDs 2 and 3; experiment: TR-FRET competition assay; format: binding, human; conditions: BD1 of BRDs 2 and 3, text summary citing Table 3
Protocol: as §4, with “200 nM N-terminally His-tagged bromodomains or BRD4(BD1BD2) and 25–50 nM biotinylated tetra-acetylated histone H4 peptide (Millipore) were incubated in the presence of Europium Cryptate-labeled streptavidin (Cisbio Cat. #610SAKLB) and XL665-labeled monoclonal anti-His antibody (Cisbio Cat.#61HISXLB) in a white 96 well microtiter plate (Greiner). For” for “For”

BRD4[BD1] [12] = biological target: T7, BRD4[BD1]; experiment: Protein thermal denaturation assay; format: binding
Protocol: as §3

BRD3[BD1] = biological target: T12, BRD3[BD1] (Homo sapiens, UniProt Q15059); experiment: Protein thermal denaturation assay; format: binding; conditions: 5 µM protein, 100 µM compound
T12 construct: we expressed and purified the bromodomains (BD1, BD2) for the BETs expressed in hepatocytes (BRD2, BRD3, BRD4)
T12 sequence (Q15059 34-140 limits assumed): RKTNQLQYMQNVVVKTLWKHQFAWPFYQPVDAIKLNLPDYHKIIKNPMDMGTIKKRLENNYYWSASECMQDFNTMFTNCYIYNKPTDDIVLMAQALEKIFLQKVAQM
Protocol: as §3

BRD3[BD2] = biological target: T13, BRD3[BD2] (Homo sapiens, UniProt Q15059); experiment: Protein thermal denaturation assay; format: binding; conditions: 5 µM protein, 100 µM compound
T13 construct: we expressed and purified the bromodomains (BD1, BD2) for the BETs expressed in hepatocytes (BRD2, BRD3, BRD4)
T13 sequence (Q15059 306-415 limits assumed): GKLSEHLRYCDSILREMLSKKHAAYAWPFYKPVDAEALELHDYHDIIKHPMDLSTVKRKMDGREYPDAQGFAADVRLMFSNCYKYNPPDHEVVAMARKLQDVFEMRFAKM
Protocol: as §3

BRD2[BD2] [13] = biological target: T8, BRD2[BD2]; experiment: Protein thermal denaturation assay; format: binding
Protocol: as §3

BRD2[BD1] [14] = biological target: T11, BRD2[BD1]; experiment: Protein thermal denaturation assay; format: binding
Protocol: as §3

BRD4[BD2] [15] = biological target: T10, BRD4[BD2]; experiment: Protein thermal denaturation assay; format: binding
Protocol: as §3

Compound: Cc1sc2c(c1C)C(c1ccc(Cl)cc1)=N[C@@H](CC(=O)OC(C)(C)C)c1nnc(C)n1-2 [JQ-1, reference compound]
- Induction of ApoA-I mRNA [1]: induces ApoA-I mRNA
- Suppression of IL-6 mRNA (IL-6 mRNA in U937 cells): selectively suppresses IL-6 mRNA
- Thermal denaturation ΔTm (SMARCA2A): 0.4 °C
- Thermal denaturation ΔTm (PHIP): −1.4 °C
- Thermal denaturation ΔTm (GCN5): −0.7 °C
- Thermal denaturation ΔTm (CREBBP): −1.0 °C
- Thermal denaturation ΔTm (BAZ2B): −0.83 °C
- Thermal denaturation ΔTm (P300): −1.4 °C

Compound: COc1cc(OC)c2c(=O)[nH]c(-c3cc(C)c(OCCO)c(C)c3)nc2c1 [RVX-208, 2-(4-(2-hydroxyethoxy)-3,5-dimethylphenyl)-5,7-dimethoxyquinazolin-4(3H)-one]
- ΔH (BRD4[BD1] [2]): -17.04 kcal/mol
- ΔS (BRD4[BD1] [2]): −34.1 cal mol^−1 K^−1
- Duration of release of BET proteins from chromatin [3]: more than 48 h
- Release of BRDs2, 3 and 4 from chromatin into soluble fraction [3]: partially released from chromatin
- Time to release of BET proteins from chromatin ([3]; time of treatment): ≤ 2 h
- ΔH (BRD2[BD2] [4]): -4.145 kcal/mol
- ΔS (BRD2[BD2] [4]): +16.7 cal mol^−1 K^−1
- pIC50 [5]: 5.84
- Binding to bromodomains of six other proteins [6]: did not bind
- Induction of ApoA-I in presence of Actinomycin D ([1]; 30 µM RVX-208, with 5 µM Actinomycin D): inhibited by Actinomycin D
- Induction of ApoA-I mRNA [1]: induces ApoA-I mRNA
- ApoA-I levels (ApoA-I and HDL-C levels): increased
- HDL-C levels (ApoA-I and HDL-C levels): increased
- Systemic capacity to promote cholesterol efflux [7]: enhanced systemic capacity to promote cholesterol efflux
- Release of PHIP from chromatin [8]: stays in the insoluble (pellet, P) fraction
- ΔH (BRD4[BD2] [9]): -6.376 kcal/mol
- ΔS (BRD4[BD2] [9]): +8.44 cal mol^−1 K^−1
- Suppression of IL-6 mRNA (IL-6 mRNA in U937 cells): selectively suppresses IL-6 mRNA
- ΔH (BRD2[BD1] [10]): -12.67 kcal/mol
- Induction of ApoA-I mRNA (ApoA-I mRNA in HepG2): induces ApoA-I mRNA
- pKd [11]: 5.52 to 5.70
- ΔTm at 100 µM (SMARCA2A): 0.4 °C
- ΔTm at 100 µM (PHIP): 0.19 °C
- ΔTm at 100 µM (BRD4[BD1] [12]): 3.9 °C
- ΔTm at 100 µM (GCN5): 0 °C
- ΔTm at 100 µM (BRD3[BD1]): 2.6 °C
- ΔTm at 100 µM (BRD3[BD2]): 6.8 °C
- ΔTm at 100 µM (BRD2[BD2] [13]): 5.1 °C
- ΔTm at 100 µM (CREBBP): -0.3 °C
- ΔTm at 100 µM (BAZ2B): 0 °C
- ΔTm at 100 µM (BRD2[BD1] [14]): 1.9 °C
- ΔTm at 100 µM (BRD4[BD2] [15]): 7.7 °C
- ΔTm at 100 µM (P300): -0.16 °C
